#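 96-well plates; 48 h exposure; 5 concentrations. Endpoints by linear interpolation between flanking doses. Not reached: highest tested concentration assigned. The concentration for 50% growth inhibition is given as GI50. The concentration for full growth arrest is given as TGI.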
# How the values were obtained:
# Test in all cases: NCI-60 cell line screen, 48 h
# BT-549 breast = test system: BT-549 breast
# DU-145 prostate = test system: DU-145 prostate
# PC-3 prostate = test system: PC-3 prostate
# MDA-MB-231 breast = test system: MDA-MB-231 breast
# HS 578T breast = test system: HS 578T breast
# MCF7 breast = test system: MCF7 breast
# T-47D breast = test system: T-47D breast
Structure (SMILES),GI50 (BT-549 breast) [µM],TGI (BT-549 breast) [µM],GI50 (DU-145 prostate) [µM],TGI (DU-145 prostate) [µM],GI50 (PC-3 prostate) [µM],TGI (PC-3 prostate) [µM],GI50 (MDA-MB-231 breast) [µM],TGI (MDA-MB-231 breast) [µM],GI50 (HS 578T breast) [µM],TGI (HS 578T breast) [µM],GI50 (MCF7 breast) [µM],TGI (MCF7 breast) [µM],GI50 (T-47D breast) [µM],TGI (T-47D breast) [µM]
OCNCCNc1nc2ccccc2c2[nH]c3ccccc3c12,1.15,3.48,0.735,2.42,0.879,2.11,1.24,3.77,1.46,3.87,1.24,4.5,,
COc1cc(NC(=O)Nc2cnc(Nc3ccc(N4CCOCC4)cc3)nc2Oc2cccc(OC)c2)cc(OC)c1,1.49,5.74,1.73,5.82,3.16,23.7,1.41,4.7,1.97,20.6,1.92,18.8,2.14,> 50
O=c1[nH]c2ccccc2n1-c1n[nH]c2ccccc12,30.5,> 100,34,> 100,18.1,> 100,22.9,> 100,23,> 100,20.1,> 100,29.5,98.2
O=C(Nc1ccccc1C(=O)N/N=C(\c1ccccc1)c1ccccn1)c1ccc(F)cc1,0.436,> 26.7,0.351,> 100,0.792,> 100,0.705,> 100,6.48,> 100,0.308,> 100,0.394,> 100
Cc1cc([N+](=O)[O-])c(C)c(Br)c1C,,> 100,,> 100,,> 100,,> 100,,> 100,,> 100,,> 100
O=C(NCCCCCCCNC(=O)OCc1ccc2c(Cl)cc(Cl)c(O)c2n1)OCc1ccc2c(Cl)cc(Cl)c(O)c2n1,0.359,1.42,0.672,1.99,0.625,2.16,1.13,2.45,1.4,5.35,,,1.33,3.95
CSC1=NCC2(S1)c1ccccc1N(C(=O)OC(C)(C)C)C2N1CCCCC1 (stereo unspecified),> 100,> 100,> 100,> 100,34.7,> 100,41.8,> 100,81.8,> 100,> 100,> 100,,
CN1CCN(c2nc(-c3ccncc3)nc3sc4c(c23)CCCCCC4)CC1,6.35,19.9,12.7,26.4,4.71,18.2,4.26,18.7,2.3,13.9,6.61,20.4,13.5,29.3
CC(NC(=O)c1ccccc1)(C(=O)O)C(=O)O,,> 100,,> 100,,> 100,,> 100,,> 100,,> 100,,> 100
